# System: INF-β transcripts
# Experiment: Inhibition of LPS induction of INF-β transcripts in macrophages (rt-PCR)
# Assay type: cell-based, Murine
# Conditions: Mus musculus, Macrophage; LPS-treated murine macrophages, mRNA transcripts by rt-PCR
# Description: (§1) Murine macrophages were treated with LPS in the presence of various exemplary compounds described above. Subsequently, the cells were harvested and the transcripts for IL-6, iNOS, and INF-β quantified via rt-PCR. IC50 is the concentration of the compounds required to inhibit 50% of the mRNA transcripts induced by LPS. TC50 is the concentration of the compounds required to diminish the MTS signal by 50% (MTS signal correlates with cell metabolism/viability). Therapeutic Index (TI) is the ratio of TC50 to IC50.
# (§2) In TABLE 4, data are provided that show effects of exemplary compounds described above on the inhibition of LPS induction of IL-6, iNOS, and INF-β transcripts in macrophages. The IL-6, iNOS, and INF-β transcripts are key mediators in a plethora of signaling networks that are involved in normal physiology and pathological processes. The mechanism by which LPS induces the IL-6, iNOS, and INF-β transcripts is via a network of signaling events. […] Data in TABLE 4 that was not calculatable is noted “NC.”
row,Structure (SMILES),IC50 [µM]
1,Oc1ccc(C2(O)CSC(=S)N2Cc2cccnc2)c(O)c1 (stereo not shown) [COB-200],0.4
2,COc1ccc(C2(O)CSC(=S)N2Cc2cccnc2)cc1 (stereo not shown) [COB-201],1.25
3,O=c1oc2ccccc2cc1C1(O)CSC(=S)N1Cc1cccnc1 (stereo not shown) [COB-202],4.4
4,COc1ccc(OC)c(-c2csc(=S)n2Cc2cccnc2)c1 [COB-203],8
5,COc1ccc(-c2csc(=S)n2Cc2cccnc2)c(OC)c1 [COB-204],14
6,COc1ccc(-c2csc(=S)n2Cc2cccnc2)cc1 [COB-206],30
7,CCCN1C(=S)SCC1(O)c1ccc(Cl)c(Cl)c1 (stereo not shown) [COB-210],3
8,CCCCCCN1C(=S)SCC1(O)c1ccccc1 (stereo not shown) [COB-212],3.6
9,CCCn1c(-c2cccc([N+](=O)[O-])c2)csc1=S [COB-215],~10
10,CCCCCCn1c(-c2ccccc2)csc1=S [COB-218],10.5
11,CCCn1c(-c2ccc(Cl)c(Cl)c2)csc1=S [COB-219],16.5
12,CCCn1c(-c2cc(OC)ccc2OC)csc1=S [COB-220],12.2
13,Oc1ccc(Cl)cc1C1(O)CSC(=S)N1Cc1ccccc1 (stereo not shown) [COB-221],1.5
14,Oc1ccc(Cl)cc1C1(O)CSC(=S)N1Cc1cccnc1 (stereo not shown) [COB-222],0.45
15,Cc1ccc(C)c(C2(O)CSC(=S)N2Cc2cccnc2)c1 (stereo not shown) [COB-223],0.4
16,Cc1ccccc1C1(O)CSC(=S)N1Cc1cccnc1 (stereo not shown) [COB-224],0.45
17,COc1ccc(F)cc1C1(O)CSC(=S)N1Cc1cccnc1 (stereo not shown) [COB-225],1
18,OC1(c2cc(C(F)(F)F)ccc2Cl)CSC(=S)N1Cc1cccnc1 (stereo not shown) [COB-226],1.5
19,CCCN1C(=S)SCC1(O)c1cccnc1 (stereo not shown) [COR-207],2.1
20,CCCn1c(-c2ccc(C#N)cc2)csc1=S [COR-216],~10

# System: iNOS transcripts
# Experiment: Inhibition of LPS induction of iNOS transcripts in macrophages (rt-PCR)
# Assay type: cell-based
# Conditions: Mus musculus, Macrophage; LPS-treated murine macrophages, mRNA transcripts by rt-PCR
# Description: as §1, §2
row,Structure (SMILES),IC50 [µM]
1,Oc1ccc(C2(O)CSC(=S)N2Cc2cccnc2)c(O)c1 (stereo not shown) [COB-200],0.5
2,COc1ccc(C2(O)CSC(=S)N2Cc2cccnc2)cc1 (stereo not shown) [COB-201],0.45
3,O=c1oc2ccccc2cc1C1(O)CSC(=S)N1Cc1cccnc1 (stereo not shown) [COB-202],2.2
4,COc1ccc(-c2csc(=S)n2Cc2cccnc2)c(OC)c1 [COB-204],7
5,COc1ccc(-c2csc(=S)n2Cc2cccnc2)cc1 [COB-206],54
6,CCCN1C(=S)SCC1(O)c1ccc(Cl)c(Cl)c1 (stereo not shown) [COB-210],2
7,CCCCCCN1C(=S)SCC1(O)c1ccccc1 (stereo not shown) [COB-212],3.4
8,CCCn1c(-c2cccnc2)csc1=S [COB-214],10.5
9,CCCn1c(-c2cccc([N+](=O)[O-])c2)csc1=S [COB-215],~10
10,CCCn1c(-c2ccc(Cl)c(Cl)c2)csc1=S [COB-219],~20
11,CCCn1c(-c2cc(OC)ccc2OC)csc1=S [COB-220],3.75
12,Oc1ccc(Cl)cc1C1(O)CSC(=S)N1Cc1ccccc1 (stereo not shown) [COB-221],1.8
13,Oc1ccc(Cl)cc1C1(O)CSC(=S)N1Cc1cccnc1 (stereo not shown) [COB-222],0.45
14,Cc1ccc(C)c(C2(O)CSC(=S)N2Cc2cccnc2)c1 (stereo not shown) [COB-223],0.4
15,Cc1ccccc1C1(O)CSC(=S)N1Cc1cccnc1 (stereo not shown) [COB-224],0.4
16,COc1ccc(F)cc1C1(O)CSC(=S)N1Cc1cccnc1 (stereo not shown) [COB-225],1
17,OC1(c2cc(C(F)(F)F)ccc2Cl)CSC(=S)N1Cc1cccnc1 (stereo not shown) [COB-226],1.5
18,CCCN1C(=S)SCC1(O)c1cccnc1 (stereo not shown) [COR-207],2.7
19,CCCn1c(-c2ccc(C#N)cc2)csc1=S [COR-216],~10

# System: Murine macrophages
# Experiment: MTS signal (cell metabolism/viability)
# Assay type: cell-based
# Conditions: 100 μM
# Description: as §1
row,Structure (SMILES),MTS signal decrease [%]
1,CCCCCCn1c(-c2ccccc2)csc1=S [COB-218],0
2,CCCn1c(-c2ccc(Cl)c(Cl)c2)csc1=S [COB-219],30

# System: not listed separately
# Experiment: MTS signal (cell metabolism/viability)
# Assay type: cell-based, Murine
# Conditions: mouse, murine macrophages; concentration required to diminish the MTS signal by 50%; read-out: Average TC50
# Description: as §1
row,Structure (SMILES),CC50 [µM]
1,Oc1ccc(C2(O)CSC(=S)N2Cc2cccnc2)c(O)c1 (stereo not shown) [COB-200],11
2,COc1ccc(C2(O)CSC(=S)N2Cc2cccnc2)cc1 (stereo not shown) [COB-201],10
3,O=c1oc2ccccc2cc1C1(O)CSC(=S)N1Cc1cccnc1 (stereo not shown) [COB-202],43
4,COc1ccc(OC)c(-c2csc(=S)n2Cc2cccnc2)c1 [COB-203],270
5,COc1ccc(-c2csc(=S)n2Cc2cccnc2)c(OC)c1 [COB-204],130
6,COc1ccc(-c2csc(=S)n2Cc2cccnc2)cc1 [COB-206],120
7,CCCN1C(=S)SCC1(O)c1ccc(Cl)c(Cl)c1 (stereo not shown) [COB-210],45
8,CCCCCCN1C(=S)SCC1(O)c1ccccc1 (stereo not shown) [COB-212],54
9,CCCn1c(-c2cccnc2)csc1=S [COB-214],230
10,CCCn1c(-c2cccc([N+](=O)[O-])c2)csc1=S [COB-215],~100
11,CCCn1c(-c2cc(OC)ccc2OC)csc1=S [COB-220],60
12,Oc1ccc(Cl)cc1C1(O)CSC(=S)N1Cc1ccccc1 (stereo not shown) [COB-221],18
13,Oc1ccc(Cl)cc1C1(O)CSC(=S)N1Cc1cccnc1 (stereo not shown) [COB-222],15
14,Cc1ccc(C)c(C2(O)CSC(=S)N2Cc2cccnc2)c1 (stereo not shown) [COB-223],14
15,Cc1ccccc1C1(O)CSC(=S)N1Cc1cccnc1 (stereo not shown) [COB-224],13
16,COc1ccc(F)cc1C1(O)CSC(=S)N1Cc1cccnc1 (stereo not shown) [COB-225],65
17,OC1(c2cc(C(F)(F)F)ccc2Cl)CSC(=S)N1Cc1cccnc1 (stereo not shown) [COB-226],33
18,CCCn1c(-c2ccc(C#N)cc2)csc1=S [COR-216],> 100

# System: IL-6 transcripts
# Experiment: Inhibition of LPS induction of IL-6 transcripts in macrophages (rt-PCR)
# Assay type: cell-based, Murine
# Conditions: Mus musculus, Macrophage; LPS-treated murine macrophages, mRNA transcripts by rt-PCR
# Description: as §1, §2
row,Structure (SMILES),IC50 [µM]
1,COc1ccc(OC)c(-c2csc(=S)n2Cc2cccnc2)c1 [COB-203],19.5
2,COc1ccc(-c2csc(=S)n2Cc2cccnc2)c(OC)c1 [COB-204],5
3,COc1ccc(-c2csc(=S)n2Cc2cccnc2)cc1 [COB-206],10.5
4,CCCN1C(=S)SCC1(O)c1ccc(Cl)c(Cl)c1 (stereo not shown) [COB-210],16
5,CCCn1c(-c2cccnc2)csc1=S [COB-214],6
6,CCCn1c(-c2cccc([N+](=O)[O-])c2)csc1=S [COB-215],8.8
7,CCCCCCn1c(-c2ccccc2)csc1=S [COB-218],9.5
8,CCCn1c(-c2ccc(Cl)c(Cl)c2)csc1=S [COB-219],8.5
9,CCCn1c(-c2cc(OC)ccc2OC)csc1=S [COB-220],5.5
10,Oc1ccc(Cl)cc1C1(O)CSC(=S)N1Cc1ccccc1 (stereo not shown) [COB-221],> 10
11,Oc1ccc(Cl)cc1C1(O)CSC(=S)N1Cc1cccnc1 (stereo not shown) [COB-222],8.6
12,Cc1ccc(C)c(C2(O)CSC(=S)N2Cc2cccnc2)c1 (stereo not shown) [COB-223],3.5
13,Cc1ccccc1C1(O)CSC(=S)N1Cc1cccnc1 (stereo not shown) [COB-224],3.5
14,COc1ccc(F)cc1C1(O)CSC(=S)N1Cc1cccnc1 (stereo not shown) [COB-225],32.5
15,OC1(c2cc(C(F)(F)F)ccc2Cl)CSC(=S)N1Cc1cccnc1 (stereo not shown) [COB-226],12.5
16,CCCN1C(=S)SCC1(O)c1cccnc1 (stereo not shown) [COR-207],12
17,CCCn1c(-c2ccc(C#N)cc2)csc1=S [COR-216],8.1
